Laboratory results: PubChem BioAssay (NCI)
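Test compounds were applied to cells in 96-well plates for 48 hours at 5 doses. Abbreviation: GI50, concentration required for 50% inhibition of growth. TGI: total growth inhibition.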

Legend:
Experiment in all cases: growth of human tumour cells (NCI), 48 h
[1] = test system: 786-0 renal
[2] = test system: A498 renal
[3] = test system: A549 NSCLC
[4] = test system: ACHN renal
[5] = test system: BT-549 breast
[6] = test system: CAKI-1 renal
[7] = test system: CCRF-CEM leukemia
[8] = test system: COLO 205 colon
[9] = test system: DU-145 prostate
[10] = test system: EKVX NSCLC
[11] = test system: HCC-2998 colon
[12] = test system: HCT-116 colon
[13] = test system: HCT-15 colon
[14] = test system: HOP-62 NSCLC
[15] = test system: HOP-92 NSCLC
[16] = test system: HS 578T breast
[17] = test system: HT29 colon
[18] = test system: IGROV1 ovarian
[19] = test system: K-562 leukemia
[20] = test system: KM12 colon
[21] = test system: LOX IMVI melanoma
[22] = test system: M14 melanoma
[23] = test system: MALME-3M melanoma
[24] = test system: MCF7 breast
[25] = test system: MDA-MB-231 breast
[26] = test system: MDA-MB-435
[27] = test system: MOLT-4 leukemia
[28] = test system: NCI-H226 lung
[29] = test system: NCI-H23 lung
[30] = test system: NCI-H460 lung
[31] = test system: NCI-H522 lung
[32] = test system: NCI/ADR-RES ovarian
[33] = test system: OVCAR-3 ovarian
[34] = test system: OVCAR-4 ovarian
[35] = test system: OVCAR-5 ovarian
[36] = test system: OVCAR-8 ovarian
[37] = test system: PC-3 prostate
[38] = test system: RPMI-8226 leukemia
[39] = test system: RXF 393 renal
[40] = test system: SF-268 CNS
[41] = test system: SF-295 CNS
[42] = test system: SF-539 CNS
[43] = test system: SK-MEL-2 melanoma
[44] = test system: SK-MEL-28 melanoma
[45] = test system: SK-MEL-5 melanoma
[46] = test system: SK-OV-3 ovarian
[47] = test system: SN12C renal
[48] = test system: SNB-19 CNS
[49] = test system: SW-620 colon
[50] = test system: T-47D breast
[51] = test system: TK-10 renal
[52] = test system: U251 CNS
[53] = test system: UACC-257 melanoma
[54] = test system: UACC-62 melanoma
[55] = test system: UO-31 renal

Compound: C=C1C(=O)O[C@H]2[C@H]1CC/C(COC(=O)CSCCSCC(=O)OC/C1=C/CC[C@@]3(C)O[C@H]3[C@H]3OC(=O)C(=C)[C@@H]3CC1)=C\CC[C@@]1(C)O[C@@H]21
- GI50 [1]: 1640 nM
- TGI [1]: 3.27 µM
- GI50 [2]: 2750 nM
- TGI [2]: 10.7 µM
- GI50 [3]: 2720 nM
- TGI [3]: 8.21 µM
- GI50 [4]: 1700 nM
- TGI [4]: 3.23 µM
- GI50 [5]: 1640 nM
- TGI [5]: 3.27 µM
- GI50 [6]: 1790 nM
- TGI [6]: 3.31 µM
- GI50 [7]: 468 nM
- TGI [7]: 3.24 µM
- GI50 [8]: 1480 nM
- TGI [8]: 2950 nM
- GI50 [9]: 1770 nM
- TGI [9]: 3.37 µM
- GI50 [10]: 1660 nM
- TGI [10]: 3.7 µM
- GI50 [11]: 1850 nM
- TGI [11]: 3.52 µM
- GI50 [12]: 1170 nM
- TGI [12]: 2640 nM
- GI50 [13]: 1550 nM
- TGI [13]: 3.01 µM
- GI50 [14]: 2450 nM
- TGI [14]: 7.38 µM
- GI50 [15]: 1860 nM
- TGI [15]: 3.82 µM
- GI50 [16]: 4.65 µM
- TGI [16]: 38.9 µM
- GI50 [17]: 1360 nM
- TGI [17]: 2680 nM
- GI50 [18]: 2350 nM
- TGI [18]: 5.6 µM
- GI50 [19]: 1170 nM
- TGI [19]: 25.7 µM
- GI50 [20]: 2080 nM
- TGI [20]: 4.06 µM
- GI50 [21]: 1490 nM
- TGI [21]: 2920 nM
- GI50 [22]: 1990 nM
- TGI [22]: 4.34 µM
- GI50 [23]: 1480 nM
- TGI [23]: 3.33 µM
- GI50 [24]: 832 nM
- TGI [24]: 2660 nM
- GI50 [25]: 1580 nM
- TGI [25]: 3.14 µM
- GI50 [26]: 2180 nM
- TGI [26]: 5.22 µM
- GI50 [27]: 1160 nM
- TGI [27]: 3.89 µM
- GI50 [28]: 3.51 µM
- TGI [28]: 13.6 µM
- GI50 [29]: 2250 nM
- TGI [29]: 5.38 µM
- GI50 [30]: 2280 nM
- TGI [30]: 6.43 µM
- GI50 [31]: 1290 nM
- TGI [31]: 2800 nM
- GI50 [32]: 3.61 µM
- TGI [32]: 16.7 µM
- GI50 [33]: 1150 nM
- TGI [33]: 2440 nM
- GI50 [34]: 2380 nM
- TGI [34]: 6.05 µM
- GI50 [35]: 2040 nM
- TGI [35]: 4.58 µM
- GI50 [36]: 1970 nM
- TGI [36]: 4.6 µM
- GI50 [37]: 2500 nM
- TGI [37]: 8.33 µM
- GI50 [38]: 1320 nM
- TGI [38]: 4.48 µM
- GI50 [39]: 1550 nM
- TGI [39]: 3.03 µM
- GI50 [40]: 1710 nM
- TGI [40]: 4.08 µM
- GI50 [41]: 2290 nM
- TGI [41]: 5.76 µM
- GI50 [42]: 1550 nM
- TGI [42]: 3.12 µM
- GI50 [43]: 2760 nM
- TGI [43]: 6.64 µM
- GI50 [44]: 1920 nM
- TGI [44]: 3.81 µM
- GI50 [45]: 1880 nM
- TGI [45]: 3.72 µM
- GI50 [46]: 4.48 µM
- TGI [46]: 15.3 µM
- GI50 [47]: 2190 nM
- TGI [47]: 5.34 µM
- GI50 [48]: 2850 nM
- TGI [48]: 9.61 µM
- GI50 [49]: 1480 nM
- TGI [49]: 3.45 µM
- GI50 [50]: 1630 nM
- TGI [50]: 3.5 µM
- GI50 [51]: 1840 nM
- TGI [51]: 3.29 µM
- GI50 [52]: 1660 nM
- TGI [52]: 3.51 µM
- GI50 [53]: 1930 nM
- TGI [53]: 3.93 µM
- GI50 [54]: 2310 nM
- TGI [54]: 5.16 µM
- GI50 [55]: 1410 nM
- TGI [55]: 2750 nM
